ChEMBL document CHEMBL4138123, “Design, synthesis and biological evaluation of novel pyrazolochalcones as potential modulators of PI3K/Akt/mTOR pathway and inducers of apoptosis in breast cancer cells” (Eur J Med Chem, 2017)

Key:
Type in all cases: functional
SN12C = test: Cytotoxicity against human SN12C cells assessed as growth inhibition after 48 hrs by sulforhodamine B assay
OVCAR-5 [1] = test: Cytotoxicity against human OVCAR5 cells assessed as cell growth at 0.01 uM after 48 hrs by sulforhodamine B assay relative to control; details: OVCAR-5, 48 h, read-out: Activity
RXF 393 = test: Cytotoxicity against human RXF393 cells assessed as cell growth at 0.01 uM after 48 hrs by sulforhodamine B assay relative to control; details: RXF 393, 48 h, read-out: Activity
KM12 = test: Cytotoxicity against human KM12 cells assessed as cell growth at 10 uM after 48 hrs by sulforhodamine B assay relative to control; details: KM12, 48 h, read-out: Activity
SK-OV-3 = test: Cytotoxicity against human SKOV3 cells assessed as cell growth at 0.1 uM after 48 hrs by sulforhodamine B assay relative to control; details: SK-OV-3, 48 h, read-out: Activity
K562 [2] = test: Cytotoxicity against human K562 cells assessed as cell growth at 0.1 uM after 48 hrs by sulforhodamine B assay relative to control; details: K562, 48 h, read-out: Activity
HCT-116 = test: Cytotoxicity against human HCT116 cells assessed as cell growth at 10 uM after 48 hrs by sulforhodamine B assay relative to control; details: HCT-116, 48 h, read-out: Activity
RPMI-8226 = test: Cytotoxicity against human RPMI8226 cells assessed as cell growth at 1 uM after 48 hrs by sulforhodamine B assay relative to control; details: RPMI-8226, 48 h, read-out: Activity
SR [3] = test: Cytotoxicity against human SR cells assessed as cell growth at 100 uM after 48 hrs by sulforhodamine B assay relative to control; details: read-out: Activity
MDA-MB-231 [4] = test: Cytotoxicity against human MDA-MB-231 cells assessed as cell growth at 100 uM after 48 hrs by sulforhodamine B assay relative to control; details: MDA-MB-231, 48 h, read-out: Activity
NCI-H322M [5] = test: Cytotoxicity against human NCI-H322M cells assessed as cell growth at 100 uM after 48 hrs by sulforhodamine B assay relative to control; details: read-out: Activity
T47D = test: Cytotoxicity against human T47D cells assessed as cell growth at 1 uM after 48 hrs by sulforhodamine B assay relative to control; details: read-out: Activity
MOLT-4 = test: Cytotoxicity against human MOLT4 cells assessed as cell growth at 1 uM after 48 hrs by sulforhodamine B assay relative to control; details: MOLT-4, 48 h, read-out: Activity
NCI/ADR-RES = test: Cytotoxicity against human NCI/ADR-RES cells assessed as cell growth at 100 uM after 48 hrs by sulforhodamine B assay relative to control; details: read-out: Activity
SK-MEL-2 = test: Cytotoxicity against human SK-MEL-2 cells assessed as growth inhibition after 48 hrs by sulforhodamine B assay; details: SK-MEL-2, 48 h
ACHN = test: Cytotoxicity against human ACHN cells assessed as growth inhibition after 48 hrs by sulforhodamine B assay
NCI-H460 [6] = test: Cytotoxicity against human NCI-H460 cells assessed as cell growth at 0.01 uM after 48 hrs by sulforhodamine B assay relative to control; details: NCI-H460, 48 h, read-out: Activity
SW-620 = test: Cytotoxicity against human SW620 cells assessed as cell growth at 100 uM after 48 hrs by sulforhodamine B assay relative to control; details: SW-620, 48 h, read-out: Activity
SK-MEL-28 = test: Cytotoxicity against human SK-MEL-28 cells assessed as cell growth at 0.01 uM after 48 hrs by sulforhodamine B assay relative to control; details: SK-MEL-28, 48 h, read-out: Activity
NCI-H522 = test: Cytotoxicity against human NCI-H522 cells assessed as cell growth at 1 uM after 48 hrs by sulforhodamine B assay relative to control; details: NCI-H522, 48 h, read-out: Activity
NCI-H460 [7] = test: Cytotoxicity against human NCI-H460 cells assessed as growth inhibition after 48 hrs by sulforhodamine B assay; details: NCI-H460, 48 h
NCI-H23 = test: Cytotoxicity against human NCI-H23 cells assessed as cell growth at 10 uM after 48 hrs by sulforhodamine B assay relative to control; details: NCI-H23, 48 h, read-out: Activity
HCT-15 = test: Cytotoxicity against human HCT15 cells assessed as cell growth at 1 uM after 48 hrs by sulforhodamine B assay relative to control; details: HCT-15, 48 h, read-out: Activity
SR [8] = test: Cytotoxicity against human SR cells assessed as cell growth at 10 uM after 48 hrs by sulforhodamine B assay relative to control; details: read-out: Activity
NCI-H322M [9] = test: Cytotoxicity against human NCI-H322M cells assessed as cell growth at 0.1 uM after 48 hrs by sulforhodamine B assay relative to control; details: read-out: Activity
SF-268 = test: Cytotoxicity against human SF268 cells assessed as growth inhibition after 48 hrs by sulforhodamine B assay; details: SF-268, 48 h; for CC50: read-out: LC50 (the source's name)
MCF7 = test: Cytotoxicity against human MCF7 cells assessed as cell growth at 0.01 uM after 48 hrs by sulforhodamine B assay relative to control; details: MCF7, 48 h, read-out: Activity
OVCAR-5 [10] = test: Cytotoxicity against human OVCAR5 cells assessed as cell growth at 10 uM after 48 hrs by sulforhodamine B assay relative to control; details: OVCAR-5, 48 h, read-out: Activity
A549 = test: Cytotoxicity against human A549/ATCC cells assessed as cell growth at 0.1 uM after 48 hrs by sulforhodamine B assay relative to control; details: A549, 48 h, read-out: Activity
HOP-62 = test: Cytotoxicity against human HOP62 cells assessed as cell growth at 10 uM after 48 hrs by sulforhodamine B assay relative to control; details: HOP-62, 48 h, read-out: Activity
K562 [11] = test: Cytotoxicity against human K562 cells assessed as cell growth at 0.01 uM after 48 hrs by sulforhodamine B assay relative to control; details: K562, 48 h, read-out: Activity
Hs-578T = test: Cytotoxicity against human Hs 578T cells assessed as cell growth at 0.01 uM after 48 hrs by sulforhodamine B assay relative to control; details: read-out: Activity
M14 = test: Cytotoxicity against human M14 cells assessed as cell growth at 1 uM after 48 hrs by sulforhodamine B assay relative to control; details: M14, 48 h, read-out: Activity
MDA-MB-231 [12] = test: Cytotoxicity against human MDA-MB-231 cells assessed as cell growth at 0.01 uM after 48 hrs by sulforhodamine B assay relative to control; details: MDA-MB-231, 48 h, read-out: Activity
SNB-19 = test: Cytotoxicity against human SNB19 cells assessed as cell growth at 10 uM after 48 hrs by sulforhodamine B assay relative to control; details: SNB-19, 48 h, read-out: Activity

COc1cc(-c2cc(/C=C/C(=O)c3ccc(N)cc3)[nH]n2)cc(OC)c1OC
GI50 (SN12C): 1.86 µM | LC50 (SN12C): 13.4 µM | TGI (SN12C): 4.52 µM | growth at 0.01 µM (OVCAR-5 [1]): 90% | growth at 0.01 µM (RXF 393): 91% | growth at 10 µM (KM12): -67% | growth at 0.1 µM (SK-OV-3): 98% | growth at 0.1 µM (K562 [2]): 94% | growth at 10 µM (HCT-116): -78% | growth at 1 µM (RPMI-8226): 28% | growth at 100 µM (SR [3]): -13% | growth at 100 µM (MDA-MB-231 [4]): -77% | growth at 100 µM (NCI-H322M [5]): -89% | growth at 1 µM (T47D): 66% | growth at 1 µM (MOLT-4): 72% | growth at 100 µM (NCI/ADR-RES): -3% | GI50 (SK-MEL-2): 2.85 µM | LC50 (concentration killing 50% of cells) (SK-MEL-2): 31.9 µM | TGI (SK-MEL-2): 7.53 µM | GI50 (ACHN): 1.61 µM | LC50 (ACHN): 8.4 µM | TGI (ACHN): 3.67 µM | growth at 0.01 µM (NCI-H460 [6]): 102% | growth at 100 µM (SW-620): -40% | growth at 0.01 µM (SK-MEL-28): 89% | growth at 1 µM (NCI-H522): 77% | GI50 (NCI-H460 [7]): 1.8 µM | LC50 (NCI-H460 [7]): 44.8 µM | TGI (NCI-H460 [7]): 5.1 µM | growth at 10 µM (NCI-H23): -19% | growth at 1 µM (HCT-15): 60% | growth at 10 µM (SR [8]): -18% | growth at 0.1 µM (NCI-H322M [9]): 103% | GI50 (SF-268): 1.69 µM | TGI (SF-268): 3.93 µM | CC50 (SF-268): 9.16 µM | growth at 0.01 µM (MCF7): 89% | growth at 10 µM (OVCAR-5 [10]): -66% | growth at 0.1 µM (A549): 94% | growth at 10 µM (HOP-62): -59% | growth at 0.01 µM (K562 [11]): 100% | growth at 0.01 µM (Hs-578T): 95% | growth at 1 µM (M14): 90% | growth at 0.01 µM (MDA-MB-231 [12]): 109%

COc1ccc(-c2cc(/C=C/C(=O)c3ccc4c(c3)OCO4)[nH]n2)cc1OC
GI50 (SN12C): 4.96 µM | GI50 (SK-MEL-2): 2.46 µM | GI50 (ACHN): 1.59 µM | GI50 (NCI-H460 [7]): 0.6 µM | GI50 (SF-268): 2.09 µM

COc1cc(C(=O)/C=C/c2cc(-c3cc(OC)c(OC)c(OC)c3)n[nH]2)cc(OC)c1OC
growth at 10 µM (SNB-19): -62% | LC50 (SN12C): 5.99 µM | TGI (SN12C): 2.97 µM | growth at 0.01 µM (OVCAR-5 [1]): 97% | growth at 0.01 µM (RXF 393): 93% | growth at 10 µM (KM12): -90% | growth at 0.1 µM (SK-OV-3): 95% | growth at 0.1 µM (K562 [2]): 104% | growth at 10 µM (HCT-116): -99% | growth at 1 µM (RPMI-8226): 17% | growth at 100 µM (SR [3]): 7% | growth at 100 µM (MDA-MB-231 [4]): -96% | growth at 100 µM (NCI-H322M [5]): -99% | growth at 1 µM (T47D): 57% | growth at 1 µM (MOLT-4): 81% | growth at 100 µM (NCI/ADR-RES): -24% | LC50 (concentration killing 50% of cells) (SK-MEL-2): 8.32 µM | TGI (SK-MEL-2): 4.04 µM | LC50 (ACHN): 5.57 µM | TGI (ACHN): 3.01 µM | growth at 0.01 µM (NCI-H460 [6]): 102% | growth at 100 µM (SW-620): -95% | growth at 0.01 µM (SK-MEL-28): 101% | growth at 1 µM (NCI-H522): 29% | LC50 (NCI-H460 [7]): 9.91 µM | TGI (NCI-H460 [7]): 4.33 µM | growth at 1 µM (HCT-15): 76% | growth at 10 µM (SR [8]): 12% | growth at 0.1 µM (NCI-H322M [9]): 97% | TGI (SF-268): 4.58 µM | CC50 (SF-268): 14.2 µM | growth at 0.01 µM (MCF7): 95% | growth at 10 µM (OVCAR-5 [10]): -91% | growth at 0.1 µM (A549): 94% | growth at 10 µM (HOP-62): -91% | growth at 0.01 µM (K562 [11]): 99% | growth at 0.01 µM (Hs-578T): 93% | growth at 1 µM (M14): 98% | growth at 0.01 µM (MDA-MB-231 [12]): 110%

COc1ccc(C(=O)/C=C/c2cc(-c3ccc4c(c3)OCO4)n[nH]2)cc1OC
growth at 10 µM (SNB-19): 21% | LC50 (SN12C): 53.7 µM | TGI (SN12C): 13.6 µM | growth at 0.01 µM (OVCAR-5 [1]): 96% | growth at 0.01 µM (RXF 393): 98% | growth at 10 µM (KM12): -2% | growth at 0.1 µM (SK-OV-3): 99% | growth at 0.1 µM (K562 [2]): 96% | growth at 10 µM (HCT-116): -9% | growth at 1 µM (RPMI-8226): 51% | growth at 100 µM (SR [3]): -35% | growth at 100 µM (MDA-MB-231 [4]): -86% | growth at 100 µM (NCI-H322M [5]): -90% | growth at 1 µM (T47D): 79% | growth at 1 µM (MOLT-4): 96% | LC50 (concentration killing 50% of cells) (SK-MEL-2): 68 µM | TGI (SK-MEL-2): 23.2 µM | LC50 (ACHN): > 100 µM | TGI (ACHN): 56.5 µM | growth at 0.01 µM (NCI-H460 [6]): 101% | growth at 100 µM (SW-620): -78% | growth at 0.01 µM (SK-MEL-28): 99% | growth at 1 µM (NCI-H522): 84% | LC50 (NCI-H460 [7]): 9.07 µM | TGI (NCI-H460 [7]): 4.05 µM | growth at 10 µM (NCI-H23): 28% | growth at 1 µM (HCT-15): 86% | growth at 10 µM (SR [8]): -13% | growth at 0.1 µM (NCI-H322M [9]): 88% | TGI (SF-268): 7.61 µM | CC50 (SF-268): 40.5 µM | growth at 0.01 µM (MCF7): 92% | growth at 10 µM (OVCAR-5 [10]): 17% | growth at 0.1 µM (A549): 96% | growth at 10 µM (HOP-62): -29% | growth at 0.01 µM (K562 [11]): 96% | growth at 0.01 µM (Hs-578T): 96% | growth at 1 µM (M14): 100% | growth at 0.01 µM (MDA-MB-231 [12]): 102%
